This note sets out measurements from paper PMC1660542, “Structure-based discovery of inhibitors of the YycG histidine kinase: New chemical leads to combat Staphylococcus epidermidis infections” (BMC Microbiology, 2006).

For orientation: IC50 means the concentration that inhibits the measured activity by half. What is called inhibition is the drop in the measured response relative to a control, in per cent.

In data set [1] the test system is S. epidermidis RP62A. In words: Minimal bactericidal concentration (MBC) assay. As to conditions: Staphylococcus epidermidis; S. epidermidis RP62A; read-out: Minimal bactericidal concentration (MBC). Type of data set: cell-based. On the procedure: (§1) MIC assays for the antibacterial activities of the compounds were performed according to the broth micro-dilution (in tubes) method of the Clinical and Laboratory Standards Institute (CLSI) of America. The Minimal Bactericidal Concentration (MBC) was obtained by subculturing 100 μl from each negative (no visible bacterial growth) tube from the MIC assay, onto substance-free Mueller-Hinton agar plates. The plates were incubated at 37°C for 24 hours, and the MBC was defined as the lowest concentration of substance which produced subcultures growing no more than five colonies on each plate.

Data set [2] relates to S. epidermidis ATCC12228. Put plainly: Minimal bactericidal concentration (MBC) assay. Type of data set: cell-based. To be noted: Staphylococcus epidermidis. As to the method:
as §1

The test system of data set [3] is S. mutans 128. Put plainly: MIC assay (broth dilution in tubes, CLSI). Type of data set: cell-based, Streptococcus mutans. As to conditions: Streptococcus mutans; S. mutans 128; read-out: Minimal inhibitory concentration (MIC).
Text: (§2) Staphylococcus epidermidis ATCC12228 and RP62A strains were purchased from the American Type Culture Collection (ATCC, Manassas, USA). Staphylococcus aureus ATCC29213, Escherichia coli ATCC25922 and Pseudomonas aeruginosa ATCC27853 were kindly provided by Dr. Bijie Hu at Zhongshan Hospital (Shanghai, China). S. epidermidis strains se527, se886, se847, seG203, Streptococcus pyogenes strain 144, and Streptococcus mutans strain 128 were all clinical isolates from Zhongshan Hospital and Huashan Hospital (Shanghai, China). If not stated otherwise, S. epidermidis and S. aureus strains were grown at 37°C in tryptic soy broth (TSB, Oxoid) containing 0.25% glucose, E. coli and P. aeruginosa strains were grown at 37°C in Luria-Bertani (LB, Oxoid).
as §1
On the technique in general: Broth dilution looks for growth in wells or tubes with falling amounts of substance.

The test system of data set [4] is S. pyogenes 144. Put plainly: MIC assay (broth dilution in tubes, CLSI). Type of data set: cell-based, Streptococcus pyogenes. As to conditions: Streptococcus pyogenes; S. pyogenes 144; read-out: Minimal inhibitory concentration (MIC).
Text: as §2, §1

In data set [5] the test system is S. aureus ATCC29213. In words: MIC assay (broth dilution in tubes, CLSI). As to conditions: Staphylococcus aureus; S. aureus ATCC29213; read-out: Minimal inhibitory concentration (MIC). Type of data set: cell-based, Staphylococcus aureus.
Text: as §2, §1

In data set [6] the test system is S. epidermidis RP62A. In words: MIC assay (broth dilution in tubes, CLSI). Type of data set: cell-based. As to conditions: Staphylococcus epidermidis; S. epidermidis RP62A (biofilm-forming strain); read-out: Minimal inhibitory concentration (MIC).
Text: as §2, §1

Data set [7] has as its target T1, YycG' protein (Staphylococcus epidermidis, UniProt Q8CU87).
T1 construct: of YycG (370aa to 610aa) was amplified by PCR; His-tag (pET28a) (N); made in house; host or cells: E. coli BL21 (pET28a, pETYycG')
Put plainly: Inhibition of YycG' ATPase activity / autophosphorylation (Kinase-Glo Luminescent Kinase Assay). As to conditions: 3 μM ATP. Type of data set: biochemical. On the procedure: The inhibitory activities of the compounds for the ATPase activity of the YycG' protein was measured using the Kinase-Glo™ Luminescent Kinase Assay (Promega, Madison, USA). Briefly, 4 μg YycG' protein was pre-incubated with a series of dilution of compounds in the reaction buffer (40 mM Tris [pH 7.5], 20 mM MgCl2, and 0.1 mg/ml BSA), at 25°C for 30 min. Then 3 μM ATP was added for another incubation of 30 min at 25°C, and Kinase-Glo™ Reagent was added to detect the rest amount of ATP, as recorded from luminescence measurements (RLU). In parallel, theYycG' protein with no addition of compounds was used as the control. The rate of inhibiting protein phosphorylation (Rp) by the compounds was calculated from equation 1:
Rp=RLU(YycG^′+compound+ATP+Reagent)−RLU(YycG^′+ATP+Reagent)/RLU(ATP+Reagent)−RLU(YycG^′+ATP+Reagent)×100% (1) MathType@MTEF@5@5@+=feaafiart1ev1aaatCvAUfKttLearuWrP9MDH5MBPbIqV92AaeXatLxBI9gBaebbnrfifHhDYfgasaacH8akY=wiFfYdH8Gipec8Eeeu0xXdbba9frFj0=OqFfea0dXdd9vqai=hGuQ8kuc9pgc9s8qqaq=dirpe0xb9q8qiLsFr0=vr0=vr0dc8meaabaqaciaacaGaaeqabaqabeGadaaakeaacqqGsbGudaWgaaWcbaGaeeiCaahabeaakiabg2da9maalaaabaGaeeOuaiLaeeitaWKaeeyvauLaeiikaGIaeeywaKLaeeyEaKNaee4yamMafe4raCKbauaacqGHRaWkcqqGJbWycqqGVbWBcqqGTbqBcqqGWbaCcqqGVbWBcqqG1bqDcqqGUbGBcqqGKbazcqGHRaWkcqqGbbqqcqqGubavcqqGqbaucqGHRaWkcqqGsbGucqqGLbqzcqqGHbqycqqGNbWzcqqGLbqzcqqGUbGBcqqG0baDcqGGPaqkcqGHsislcqqGsbGucqqGmbatcqqGvbqvcqGGOaakcqqGzbqwcqqG5bqEcqqGJbWycuqGhbWrgaqbaiabgUcaRiabbgeabjabbsfaujabbcfaqjabgUcaRiabbkfasjabbwgaLjabbggaHjabbEgaNjabbwgaLjabb6gaUjabbsha0jabcMcaPaqaaiabbkfasjabbYeamjabbwfavjabcIcaOiabbgeabjabbsfaujabbcfaqjabgUcaRiabbkfasjabbwgaLjabbggaHjabbEgaNjabbwgaLjabb6gaUjabbsha0jabcMcaPiabgkHiTiabbkfasjabbYeamjabbwfavjabcIcaOiabbMfazjabbMha5jabbogaJjqbbEeahzaafaGaey4kaSIaeeyqaeKaeeivaqLaeeiuaaLaey4kaSIaeeOuaiLaeeyzauMaeeyyaeMaee4zaCMaeeyzauMaeeOBa4MaeeiDaqNaeiykaKcaaiabgEna0kabigdaXiabicdaWiabicdaWiabcwcaLiaaxMaacaWLjaWaaeWaaeaacqaIXaqmaiaawIcacaGLPaaaaaa@A46C@
IC50 (the concentration of inhibition of 50% YycG' protein autophosphorylation) was obtained by using the Origin v7.0 software (OriginLab, Northampton, USA).

Data set [8] concerns SrrB'. Put plainly: Inhibition of SrrB' autophosphorylation (Kinase-Glo). Type of data set: biochemical, S. epidermidis. As to conditions: compound 50 μM, 4 μg protein, 3 μM ATP.
Data set [9] can be described thus: Erythrocyte hemolysis assay.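 Note: compounds tested at their MIC and at 4× MIC.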 Type of data set: cell-based, human. As to conditions: human, erythrocytes (5% suspension), 1 hour, 37°C. On the procedure: Cytotoxicity of the antibacterial compounds on cultured Vero cell was measured by using the Cell Proliferation Kit I (MTT) (Roche, Indianapolis, USA) according to the manufacturer's protocol. Addition of DMSO (1%) in the medium produced a slight cytotoxicity on Vero cell, which could easily be corrected for. Each assay was performed in quadruplicate and repeated three times. The results were converted to percentage of the control (cells only treated with 1% DMSO) and CC50 (concentrations that produce a 50% cytotoxicity effect on Vero cell) was calculated by the Origin v7.0 software (OriginLab, Northampton, USA). Hemolytic activities of the compounds were determined by using healthy human erythrocytes. The erythrocytes were washed three times in sterile saline and resuspended to 5% prior to the assay. […] Cells without compound treatment and cells with 1% Triton-100 treatment were used as 0% and 100% hemolysis controls, respectively. The cell suspensions were incubated for 1 hour at 37°C and centrifuged at 1000×g for 10 min. Volumes of 100 μl supernatants were transferred to another sterile plate and hemoglobin release from the cells was determined at 570 nm. […] The hemolysis assays were repeated twice.

T1 sequence (Q8CU87 370-610): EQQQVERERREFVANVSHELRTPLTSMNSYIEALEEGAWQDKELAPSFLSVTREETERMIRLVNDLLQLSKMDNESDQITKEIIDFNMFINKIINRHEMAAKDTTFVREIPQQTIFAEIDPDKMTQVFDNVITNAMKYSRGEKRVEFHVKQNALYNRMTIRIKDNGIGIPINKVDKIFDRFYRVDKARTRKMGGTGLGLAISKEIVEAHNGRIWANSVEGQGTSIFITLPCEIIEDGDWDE

With `Cc1ccc(NC(=O)CN2C(=O)S/C(=C\c3ccc(OCc4cccc(C(O)O)c4)cc3)C2=O)cc1` [Compound 7], the MBC in [1] and in data set [2] was over 400 µM throughout. In addition, the MIC in data set [3], in data set [4], in data set [5] and in data set [6] was over 200 µM each time. Further, in data set [7] (4 μg YycG' protein, read-out: IC50 for YycG'), the IC50 amounted to 6.5 µM. Further, the inhibition at 50 µM in [7] (compound 50 μM, 4 μg protein, read-out: Inhibition of YycG' phosphorylation (decrease of ATPase activity)) came to 86%. Besides, in data set [8], the “Inhibition of SrrB' phosphorylation” value was 2%. The hemolysis at 1 h in [9] (at 4 × MIC (number in parenthesis)) and in [9] (at MIC for S. epidermidis ATCC12228) was under 0.1% in each case.
